The TGI is the concentration at which net growth stops. Lower therefore signals more potent growth arrest.

Drawing on PubChem BioAssay (NCI), this text covers TGI for 17 molecules.

Test systems include HOP-18 NSCLC; DMS 114 small cell lung; U251 CNS; SNB-78 CNS; M19-MEL melanoma; OVCAR-3 ovarian; MALME-3M melanoma; KM20L2 colon; TK-10 renal; XF 498 CNS; LXFL 529 NSCLC; RXF-631 renal; OVCAR-4 ovarian; DLD-1 colon; DMS 273 small cell lung; OVCAR-8 ovarian.
Common to all, as to experiment: DTP human tumour cell line panel, 48 h

SMILES strings stand for the structures.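 Values below derive from 48-hour exposures of cells grown in 96-well plates, with endpoints linearly interpolated between the two concentrations bracketing the appropriate inhibition level. The concentration for full growth arrest is given as TGI.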

With `COc1cc(C2c3cc4c(cc3OC3(O)COC(=O)C23)OCO4)cc(OC)c1OC` (stereo unspecified), the TGI in the assay on HOP-18 NSCLC, in the assay on DMS 114 small cell lung, in the assay on U251 CNS, in the assay with SNB-78 CNS, with M19-MEL melanoma and with OVCAR-3 ovarian was > 100 µM in each case. Moreover, the TGI with MALME-3M melanoma is > 100 µM; in the assay with KM20L2 colon, 54.3 µM; with TK-10 renal, > 100 µM; in the assay on XF 498 CNS, 96.7 µM; with LXFL 529 NSCLC it was > 100 µM; in the assay with RXF-631 renal it was > 100 µM. The TGI in the assay on OVCAR-4 ovarian, with DLD-1 colon, in the assay with DMS 273 small cell lung and in the assay on OVCAR-8 ovarian was > 100 µM each time.

Regarding `CC1=C2C(=O)C3[C@@H](CCC4=CC(=O)CC[C@@]43C)C2CC[C@]12O[C@@H]1C[C@H](C)CN[C@H]1[C@H]2C` (stereo partly specified), the total growth inhibition concentration (TGI) with HOP-18 NSCLC was > 100 µM; in the assay on DMS 114 small cell lung it was 28.9 µM; with U251 CNS it was 51.5 µM; with M19-MEL melanoma, > 100 µM; in the assay with OVCAR-3 ovarian, > 100 µM; in the assay with KM20L2 colon, > 100 µM. In addition, the TGI was 98.7 µM in the assay with TK-10 renal; 94.4 µM with XF 498 CNS; > 100 µM in the assay on LXFL 529 NSCLC; > 100 µM in the assay on OVCAR-4 ovarian; > 100 µM in the assay on DLD-1 colon; 42.8 µM in the assay on DMS 273 small cell lung. Further, the TGI with OVCAR-8 ovarian was > 100 µM.

For `Cc1ccc(S(=O)(=O)c2c(N)c3nccn3c3nc4ccccc4nc23)cc1`, the TGI in the assay with DMS 114 small cell lung, in the assay with U251 CNS, in the assay on SNB-78 CNS, in the assay with M19-MEL melanoma, in the assay with OVCAR-3 ovarian and in the assay with MALME-3M melanoma was > 100 µM each time. Moreover, the TGI in the assay on KM20L2 colon, in the assay with TK-10 renal, with XF 498 CNS, in the assay on LXFL 529 NSCLC, in the assay on OVCAR-4 ovarian and in the assay on DLD-1 colon was > 100 µM throughout. Besides, the total growth inhibition concentration (TGI) in the assay on DMS 273 small cell lung and in the assay on OVCAR-8 ovarian was > 100 µM each time.

As to `Cc1c2ccccc2c(CO)c2cc(F)c3ccccc3c12`, the TGI was 89.9 µM in the assay with HOP-18 NSCLC; 34.2 µM in the assay with DMS 114 small cell lung; 50.3 µM with U251 CNS; 69.1 µM in the assay with SNB-78 CNS; > 100 µM in the assay with M19-MEL melanoma; 61.3 µM in the assay with OVCAR-3 ovarian. Moreover, the TGI in the assay on MALME-3M melanoma is > 100 µM; with KM20L2 colon, 48.6 µM; with TK-10 renal it was 71.8 µM; with XF 498 CNS it was 51 µM; with RXF-631 renal it was 30.7 µM; in the assay on OVCAR-4 ovarian it was 98.2 µM. Besides, the TGI in the assay on DLD-1 colon stood at 43.6 µM; in the assay on DMS 273 small cell lung, 32 µM; with OVCAR-8 ovarian, 41.4 µM.

For the molecule `CN(C)CCSC(=Nc1ccccc1)N1C=COC=C1`, the concentration for total growth inhibition (TGI) with HOP-18 NSCLC was > 100 µM; with DMS 114 small cell lung, 27.9 µM; in the assay on U251 CNS it was > 100 µM; in the assay with SNB-78 CNS it was 90.1 µM; in the assay on M19-MEL melanoma, 32.5 µM; in the assay on OVCAR-3 ovarian, > 81.8 µM. Further, the total growth inhibition concentration (TGI) was > 81.8 µM in the assay with MALME-3M melanoma; > 100 µM in the assay on KM20L2 colon; > 100 µM in the assay on TK-10 renal; 85.3 µM with XF 498 CNS; 30.6 µM in the assay on LXFL 529 NSCLC; > 62 µM in the assay with OVCAR-4 ovarian. Further, the total growth inhibition concentration (TGI) is 32.4 µM in the assay on DLD-1 colon, 35.7 µM in the assay on DMS 273 small cell lung and > 63.3 µM in the assay on OVCAR-8 ovarian.

As to `CCOc1ccc(C2=C(Cl)c3cc(OC)c(OC)cc3C2Cl)cc1` (stereo unspecified), the concentration for total growth inhibition (TGI) is > 100 µM in the assay on HOP-18 NSCLC; 56.2 µM with DMS 114 small cell lung; 39.8 µM in the assay on U251 CNS; > 100 µM with SNB-78 CNS; > 100 µM in the assay with M19-MEL melanoma; > 100 µM in the assay on OVCAR-3 ovarian. Also, the concentration for total growth inhibition (TGI) in the assay with MALME-3M melanoma was > 100 µM; with KM20L2 colon, > 100 µM; in the assay on TK-10 renal it was > 100 µM; in the assay on XF 498 CNS, 42.9 µM; in the assay with LXFL 529 NSCLC, > 100 µM; in the assay on DLD-1 colon, > 100 µM. Further, the concentration for total growth inhibition (TGI) in the assay on DMS 273 small cell lung and in the assay on OVCAR-8 ovarian was > 100 µM in each case.

Turning to `C=C1C(=O)OC2C[C@H](C)C3CC(=O)C(C)=C3CC12` (stereo partly specified), the TGI in the assay on DMS 114 small cell lung was determined as 32.2 µM; in the assay on U251 CNS, 18.1 µM; in the assay on SNB-78 CNS it was 44.1 µM; with M19-MEL melanoma, 27.8 µM; with OVCAR-3 ovarian, 26.2 µM; with MALME-3M melanoma, 25.3 µM. In addition, the concentration for total growth inhibition (TGI) was determined as 33.5 µM with KM20L2 colon; 30.5 µM in the assay with TK-10 renal; 30.1 µM with XF 498 CNS; 24.7 µM with LXFL 529 NSCLC; 30.3 µM in the assay on OVCAR-4 ovarian; 21.5 µM in the assay on DLD-1 colon. The concentration for total growth inhibition (TGI) was 32.5 µM in the assay with DMS 273 small cell lung and 39.3 µM with OVCAR-8 ovarian.

For the molecule `CC(C)=CCC/C(C)=C/CC/C(C)=C/CC/C=C(\C)CC/C=C(\C)CCC1SC1(C)C` (stereo unspecified), the concentration for total growth inhibition (TGI) with HOP-18 NSCLC, in the assay on DMS 114 small cell lung, in the assay with U251 CNS, in the assay with SNB-78 CNS, in the assay on M19-MEL melanoma and with MALME-3M melanoma was > 100 µM in each case. Further, the TGI in the assay with KM20L2 colon, in the assay on TK-10 renal, in the assay with LXFL 529 NSCLC, in the assay on OVCAR-4 ovarian, with DLD-1 colon and in the assay on DMS 273 small cell lung was > 100 µM in each case. Further, the total growth inhibition concentration (TGI) in the assay on OVCAR-8 ovarian was > 100 µM.

Take `CC(C)=CCC[C@](C)(O)[C@H]1CC[C@]2(C)[C@@H]1[C@H](O)C[C@@H]1[C@@]3(C)CC[C@H](O[C@@H]4O[C@H](CO)[C@@H](O)[C@H](O)[C@H]4O)C(C)(C)[C@@H]3CC[C@]12C`: the total growth inhibition concentration (TGI) is 35.2 µM with U251 CNS; 32 µM in the assay with OVCAR-3 ovarian; 34.6 µM in the assay with MALME-3M melanoma; 39.6 µM with TK-10 renal; 38.1 µM in the assay on OVCAR-4 ovarian; 33.6 µM in the assay with OVCAR-8 ovarian.

`CCc1ccc(CCC(=O)O)nc1`: the TGI in the assay on U251 CNS, in the assay on OVCAR-3 ovarian, in the assay with MALME-3M melanoma, in the assay on TK-10 renal, with OVCAR-4 ovarian and in the assay on OVCAR-8 ovarian was > 100 µM each time.

With `CC(=O)Nc1ccc(C2=N/C(=C\c3ccc(Cl)c(Cl)c3)C(=O)O2)cc1`, the TGI in the assay on HOP-18 NSCLC, in the assay with DMS 114 small cell lung, in the assay on U251 CNS, in the assay with SNB-78 CNS, in the assay on M19-MEL melanoma and in the assay with OVCAR-3 ovarian was > 100 µM in each case. The TGI in the assay with MALME-3M melanoma, in the assay on KM20L2 colon, with TK-10 renal, in the assay on XF 498 CNS, in the assay on LXFL 529 NSCLC and in the assay on RXF-631 renal was > 100 µM in each case. For the same molecule, the TGI in the assay with OVCAR-4 ovarian, in the assay on DLD-1 colon, in the assay on DMS 273 small cell lung and in the assay with OVCAR-8 ovarian was > 100 µM each time.

For the molecule `O=C1NC2OCC(O)C(O1)C2O` (stereo unspecified), the total growth inhibition concentration (TGI) with HOP-18 NSCLC, with DMS 114 small cell lung, in the assay on U251 CNS, with SNB-78 CNS, in the assay with M19-MEL melanoma and with OVCAR-3 ovarian was > 100 µM throughout. In addition, the total growth inhibition concentration (TGI) in the assay on MALME-3M melanoma, in the assay with KM20L2 colon, in the assay with TK-10 renal, in the assay on XF 498 CNS, in the assay with LXFL 529 NSCLC and in the assay on RXF-631 renal was > 100 µM in each case. Moreover, the concentration for total growth inhibition (TGI) in the assay on OVCAR-4 ovarian, in the assay on DLD-1 colon, in the assay with DMS 273 small cell lung and in the assay on OVCAR-8 ovarian was > 100 µM in each case.

For `O=C(O)CN1CCNCCN(CC(=O)O)CCNCC1`, the TGI with U251 CNS, in the assay with OVCAR-3 ovarian, in the assay on MALME-3M melanoma, with TK-10 renal, with OVCAR-4 ovarian and with OVCAR-8 ovarian was > 100 µM in each case.

With `COC(=O)c1ccccc1/C=C1\Cc2cc3c(cc2C1=O)CCC3`, the concentration for total growth inhibition (TGI) with U251 CNS, in the assay with OVCAR-3 ovarian, in the assay on MALME-3M melanoma, in the assay with TK-10 renal, in the assay on OVCAR-4 ovarian and in the assay on OVCAR-8 ovarian was > 100 µM in each case.

Consider `COc1cc(CNc2nc3ccccc3nc2-c2cccs2)cc(OC)c1OC`, for which the TGI is > 100 µM with U251 CNS; > 100 µM with OVCAR-3 ovarian; 79.3 µM in the assay with MALME-3M melanoma; > 100 µM with TK-10 renal; 23.4 µM with OVCAR-4 ovarian; > 100 µM in the assay with OVCAR-8 ovarian.

With `CN(C)C1(C(=O)O)CC1`, the TGI with U251 CNS, in the assay on OVCAR-3 ovarian, in the assay on MALME-3M melanoma, with TK-10 renal, in the assay on OVCAR-4 ovarian and with OVCAR-8 ovarian was > 100 µM in each case.

Regarding `Cc1ccc(C2(C)NC(=S)N(NC(N)=S)C2=S)cc1` (stereo unspecified), the TGI in the assay with DMS 114 small cell lung, in the assay with U251 CNS, in the assay with M19-MEL melanoma, in the assay with OVCAR-3 ovarian, in the assay with MALME-3M melanoma and in the assay on KM20L2 colon was > 100 µM throughout. Further, the total growth inhibition concentration (TGI) in the assay on TK-10 renal, with XF 498 CNS, in the assay with LXFL 529 NSCLC, with RXF-631 renal, in the assay with OVCAR-4 ovarian and with DLD-1 colon was > 100 µM throughout. Also, the total growth inhibition concentration (TGI) in the assay with DMS 273 small cell lung and with OVCAR-8 ovarian was > 100 µM each time.
